Tests used:
[1] = tested on: Male Long-Evans rats; assay: Neurologic assessment in rat cardiac arrest (global ischemia) model; type: in vivo; conditions: conditions of Table 1
Method: Male Long-Evans rats (250 g) were obtained from Charles River Laboratories, Portage, Mich. The neurologic function and seizure susceptibility of each animal was tested according to the methods described below. The rats were housed in the experimental laboratory for at least 24 h prior to study to avoid transit stress and to ensure a 24-h fasting period. Only rats with blood glucose levels of 100 mg/dL or less at the end of fasting were used in the experiments.
General anesthesia was induced with ketamine (100 mg/kg, ip) and maintained with small fractional supplements as needed. Tracheal intubation was performed using a custom-made fiberoptic rodent laryngoscope and a 14-gauge polyethylene catheter. Needle electrodes were inserted in the scalp and thorax to monitor the EEG and ECG, respectively, while blood pressure was measured via an indwelling femoral arterial cannula. Body and brain temperatures were monitored by thermistors placed in the rectum and temporalis muscle, respectively. […]
Neurologic assessment was identical to that described for the use with this model by Wauquier et al. (Neuropharmacology 1989; 28(8):837-846). […] In addition to the neurodeficit score, the angle of inclination at which the rat could no longer cling to the inclined plane was determined. Performance was quantified as percent of preinsult baseline.

[2] = tested on: human epilepsy; conditions: adjunctive therapy or monotherapy; clinical trials; cited from earlier work

Row | Structure (SMILES) | detrimental effect on exploratory behavior (effect in words) [1] | ischemia-induced neurological deficit (effect in words) [1] | efficacy in treating simple and complex partial seizures and secondarily generalized seizures [2]
1 | CC1(C)O[C@H]2[C@@H]3OS(=O)(=O)O[C@@H]3CO[C@@]2(COS(N)(=O)=O)O1 [RWJ-37947] | significantly reduced | significantly reduced | 
2 | CC1(C)O[C@@H]2[C@@H](CO[C@@]3(COS(N)(=O)=O)OC(C)(C)O[C@@H]23)O1 [topiramate, 2,3:4,5-bis-O-(1-methylethylidene)-β-D-fructopyranose sulfamate] |  |  | effective

— patent US6495523B1, “Tricyclic monosaccharide derivatives useful in treating acute ischemia-induced neurodegeneration” (Ortho McNeil-Pharmaceutical, Inc., priority 1999, dated 2002)
